# According to patent US20110319338A1, “PEPTIDES THAT BIND EUKARYOTIC TRANSLATION INITIATION FACTOR 4E” (The Board of Regents of the University of Texas System, priority 2008, published 2011):
# Read-outs that look alike come from different tables or passages of the source.
# Key:
# [1] = test system: ES-2-DualLuc cells; assay: Cell-based translation assay with bicistronic R-Luc/F-Luc reporter
# Description: (§1) FIGS. 2A-2F. Inhibition of cap-dependent translation and cell growth by TAT-4EBP fusion peptides. (FIG. 2A) Representation of the pIRES-DualLuc bicistronic construct containing Renilla Luciferase (R-Luc) and firefly luciferase (F-Luc) genes. In (FIG. 2B), R-Luc and F-Luc activities were assayed in ES-2-DualLuc cells following treatment for 24 hours with rapamycin and for 3 hours with cycloheximide with the indicated concentrations of these drugs, and expressed relative to the respective luciferase activities in cells incubated without drug. Cell viability was not affected by rapamycin and cycloheximide under these conditions. In (FIG. 2C), R-Luc and F-Luc activities were assayed in ES-2-DualLuc cells following treatment for 6 hours with the indicated concentrations of peptides, and expressed relative to the respective luciferase activities in cells incubated without peptide. Shown are results of triplicate assays performed independently two times, and the statistical significance of differences in relative R-Luc and F-Luc activities in cells treated with peptide at a concentration of 10 micromoles per liter. (FIG. 2D) Viability of OVCAR-3 cells at 3 days after addition of the indicated concentrations of peptides, expressed relative to viability of cells incubated without peptide. Shown are results of triplicate assays performed in two independent experiments, and statistical significances of differences in viability of cells treated with TAT-4EBP1-WT vs. TAT-4EBP1-MT, and of cells treated with TAT-4EBP2-WT vs. TAT-4EBP2-MT at a concentration of 10 micromoles per liter. (FIG. 2E) OVCAR-3 cells at 3 days after peptide addition (10 micromoles per liter) viewed under phase-contrast microscopy. (FIG. 2F) Flow cytometric analysis of staining of terminal deoxynucleotidyl transferase-mediated dUTP nick end labeling (TUNEL) in OVCAR-3 cells at 3 days after peptide addition (10 micromoles per liter). Cells incubated for 3 days in the absence of peptide in medium with and without serum are included as controls.
# (§2) FIGS. 3A-3H. Uptake, binding and inhibitory effects of [DLys6]GnRH-4EBP fusion peptides. (FIG. 3A) Sequences of [DLys6]GnRH, and wild-type and mutant 4EBP1 peptides fused to the agonist. (FIG. 3B) Western blot of GnRH-RI levels in OVCAR-3, ES-2, MDA-MB-231, BJ, HUVEC and SKOV3 cells. (FIG. 3C) Detection of biotinylated peptides in OVCAR-3 and SKOV3 by Texas Red-conjugated streptavidin at 16 hours after peptide addition (3 micromoles per liter). In (FIGS. 3D and 3E), biotinylated peptides were incubated with OVCAR-3 cell lysate as described in FIG. 1. In (FIG. 3D), peptide was pulled down using streptavidin-agarose. Precipitates (P) and supernatants (S) were analyzed by Western blot using eIF4E antibody. In (FIG. 3E), immunoprecipitation was performed using eIF4E antibody, and Western blot performed using eIF4G antibody. (FIG. 3F) R-Luc and F-Luc activities were assayed in ES-2-DualLuc cells at 6 hours after addition of the indicated concentrations of peptides, and are expressed relative to the respective luciferase activities in cells incubated without peptide. Shown are results of triplicate assays performed independently two times, and the statistical significance of differences in relative R-Luc and F-Luc activities in cells treated with peptide at a concentration of 10 micromoles per liter (FIG. 3G) Cells of GnRH-RI-positive and -negative lines were treated with the indicated concentrations of peptides. Viability at 3 days after peptide addition is expressed relative to viability of cells incubated with no peptide. Shown are results of triplicate assays performed in two independent experiments, and statistical significances of differences in viability of cells treated with wild-type vs. mutant [DLys6]GnRH-4EBP1 peptides at a concentration of 10 micromoles per liter. (FIG. 3H) ES-2 and parental SKOV3 cells at 3 days after peptide addition (30 micromoles per liter) viewed under phase-contrast microscopy. […]
# [2] = target: T1, eIF4E (Homo sapiens, UniProt P06730); assay: Streptavidin-agarose pull-down of biotinylated peptide from OVCAR-3 cell lysate, Western blot with eIF4E antibody; format: binding; settings: biotinylated peptide 3 micromoles per liter, 250 micrograms OVCAR-3 cell lysate
# T1 construct: endogenous in cells; host or cells: OVCAR-3 cell lysate
# Description: (§3) FIGS. 1A-1G. 4EBP peptides bind eIF4E and inhibit binding of eIF4E to eIF4G. (FIG. 1A) Sequences of peptides comprising residues 49 to 68 of 4EBP1 and 4EBP2. (FIG. 1B) Biotinylated peptides (3 micromoles per liter) were incubated with 250 micrograms of OVCAR-3 cell lysate. Peptides were pulled-down using streptavidin-agarose. Precipitates (P) and supernatants (S) were analyzed by Western blot using eIF4E antibody. In (FIG. 1C), immunoprecipitation was performed using eIF4E antibody, and Western blot performed using eIF4G antibody. (FIG. 1D) Sequences of wild-type and mutant 4EBP peptides fused to TAT (mutant residues are highlighted). (FIG. 1E) OVCAR-3 cells were treated with biotinylated peptides (3 micromoles per liter, final concentration) for 16 hours. Internalized peptides were detected by staining fixed cells with Texas Red-conjugated streptavidin. Nuclei were visualized by staining with 4′,6-Diamidino-2-Phenylindole (DAPI). (FIGS. 1F and 1G) OVCAR-3 cell lysates were incubated with peptides as described for FIG. 1B. In (FIG. 1F), immunoprecipitation was performed using streptavidin-agarose and Western blot performed using eIF4E antibody. In (FIG. 1G), immunoprecipitation was performed using eIF4E antibody, and Western blot performed using eIF4G antibody.
# as §2, with “peptides.” for “peptides. Viability at 3 days after peptide addition is expressed relative to viability of cells incubated with no peptide. Shown are results of triplicate assays performed in two independent experiments, and statistical significances of differences in viability of cells treated with wild-type vs. mutant [DLys6]GnRH-4EBP1 peptides at a concentration of 10 micromoles per liter. (FIG. 3H) ES-2 and parental SKOV3 cells at 3 days after peptide addition (30 micromoles per liter) viewed under phase-contrast microscopy.”
# [3] = target: T2, binding of eIF4E to eIF4G (Homo sapiens, UniProt P06730); assay: Immunoprecipitation with eIF4E antibody and Western blot with eIF4G antibody, OVCAR-3 cell lysate incubated with peptide; settings: peptide 3 micromoles per liter, 250 micrograms OVCAR-3 cell lysate
# T2 construct: endogenous in cells; host or cells: OVCAR-3 cell lysate
# Description: as §3
# as §2, with “peptides.” for “peptides. Viability at 3 days after peptide addition is expressed relative to viability of cells incubated with no peptide. Shown are results of triplicate assays performed in two independent experiments, and statistical significances of differences in viability of cells treated with wild-type vs. mutant [DLys6]GnRH-4EBP1 peptides at a concentration of 10 micromoles per liter. (FIG. 3H) ES-2 and parental SKOV3 cells at 3 days after peptide addition (30 micromoles per liter) viewed under phase-contrast microscopy.”
# [4] = test system: OVCAR-3 cells; assay: Cell viability assay (crystal violet); format: cell-based; settings: OVCAR-3, 3 days after peptide addition, 0.3 to 30 micromoles per liter
# Description: as §1, with “Shown are results of triplicate assays performed in two independent experiments, and statistical significances of differences in viability of cells treated with TAT-4EBP1-WT vs. TAT-4EBP1-MT, and of cells treated with TAT-4EBP2-WT vs. TAT-4EBP2-MT at a concentration of 10 micromoles per liter. (FIG. 2E) OVCAR-3 cells at 3 days after peptide addition (10 micromoles per liter) viewed under phase-contrast microscopy. (FIG. 2F) Flow cytometric analysis of staining of terminal deoxynucleotidyl transferase-mediated dUTP nick end labeling (TUNEL) in OVCAR-3 cells at 3 days after peptide addition (10 micromoles per liter). Cells incubated for 3 days in the absence of peptide in medium with and without serum are included as controls.” left out
# FIGS. 3A-3H. […] Precipitates (P) and supernatants (S) were analyzed by Western blot using eIF4E antibody. […]
# [5] = rapamycin 24 hours, cycloheximide 3 hours
# T2 sequence (P06730 2-217 limits assumed): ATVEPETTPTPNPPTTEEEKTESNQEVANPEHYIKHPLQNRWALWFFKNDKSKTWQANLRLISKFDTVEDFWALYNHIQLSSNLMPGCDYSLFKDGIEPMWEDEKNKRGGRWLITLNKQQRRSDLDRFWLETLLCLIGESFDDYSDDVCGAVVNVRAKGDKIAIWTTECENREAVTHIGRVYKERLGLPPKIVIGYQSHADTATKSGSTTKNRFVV
# T1 sequence (P06730 whole entry): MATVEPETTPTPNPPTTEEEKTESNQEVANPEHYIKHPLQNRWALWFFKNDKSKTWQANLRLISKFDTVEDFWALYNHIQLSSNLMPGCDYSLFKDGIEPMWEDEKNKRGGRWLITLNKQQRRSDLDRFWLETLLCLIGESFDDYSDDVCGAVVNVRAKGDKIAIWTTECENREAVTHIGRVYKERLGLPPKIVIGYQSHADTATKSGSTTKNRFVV
Molecule,binding of peptide to eIF4E [2],inhibition of eIF4E binding to eIF4G [3],further results
CO[C@H]1C[C@@H]2CC[C@@H](C)[C@@](O)(O2)C(=O)C(=O)N2CCCC[C@H]2C(=O)O[C@H]([C@H](C)C[C@@H]2CC[C@@H](O)[C@H](OC)C2)CC(=O)[C@H](C)/C=C(\C)[C@@H](O)[C@@H](OC)C(=O)[C@H](C)C[C@H](C)/C=C/C=C/C=C/1C [rapamycin],,,cell viability under translation assay conditions [1]: not affected
4EBP2-WT: peptide containing the region of 4EBP2 corresponding to residues 49-68 of 4EBP1 (GTRIIYDRKFLLDRRNSPMA),bound to eIF4E,inhibited eIF4E from binding eIF4G,
TAT-4EBP2-WT: wild-type 4EBP2 residues fused to cell-penetrating residues of HIV TAT protein (YGRKKRRQRRRGTRIIYDRKFLLDRRNSPMA),,,"cap-dependent translation (R-Luc read-out) ([1]; peptide 6 hours, 0.3 to 10 micromoles per liter, relative to cells without peptide): also inhibited cap-dependent translation, but was slightly less effective than TAT-4EBP1-WT; cell viability / growth [4]: decreased cell viability in a dose-dependent manner"
C[C@@H]1C[C@@H]([C@H](O)CC2CC(=O)NC(=O)C2)C(=O)[C@@H](C)C1 [cycloheximide],,,"cap-dependent translation (R-Luc read-out) [1, 5]: inhibited both cap-dependent and independent translation; cap-independent translation (F-Luc readout) [1, 5]: inhibited both cap-dependent and independent translation; cell viability under translation assay conditions [1, 5]: not affected"

# Now from value to molecule, other results behind:
binding of peptide to eIF4E [2],inhibition of eIF4E binding to eIF4G [3],Molecule,further results
substantially impaired,substantially impaired,"TAT-4EBP2-MT: TAT-4EBP2 fusion peptide in which Tyr-54, Arg-56 and Leu-59 were substituted by Gly (YGRKKRRQRRRGTRIIGDGKFGLDRRNSPMA)",
substantially impaired,substantially impaired,"TAT-4EBP1-MT: TAT-4EBP1 fusion peptide in which Tyr-54, Arg-56 and Leu-59 were substituted by Gly (YGRKKRRQRRRGTRIIGDGKFGMECRNSPVT)",
